# Results: PMC10178204, “Peptaibol Analogs Show Potent Antibacterial Activity against Multidrug Resistant Opportunistic Pathogens” (International Journal of Molecular Sciences, 2023)
# Values joined by “and” are separate entries in the source; they are usually repeats but may differ in a detail not shown here. Equal entries are not always repeated. Non-standard residues stand in square brackets, D forms with d. Residues, ends and D or L forms follow the SMILES beside them. *: point of attachment. Leu(ol) = CC(C)C[C@H](N)CO; Octanoyl = CCCCCCCC(=O)*; Aib = CC(C)(N)C(=O)O
# Key:
# [1] = system: Streptococcus pyogenes ATCC 12344; details: MHB, 5 × 10^5 CFU/mL, 18 h, 35 °C, triplicate
# From the text: (§1) The antibacterial activity of the peptides was initially assessed on a panel of representative Gram-positive and Gram-negative organisms of high clinical relevance and commonly responsible for bacterial infections in both animals and humans. Bacillus subtilis ATCC 6633 (Bsu) was also included as a rod-shaped model Gram-positive organism. This first panel comprised: Enterococcus faecalis ATCC 29212 (Efa); Streptococcus pyogenes ATCC 12344 (Spy); and Staphylococcus aureus ATCC 25923 (Sau); Gram-negative: Escherichia coli CCUGT (Eco), Klebsiella pneumoniae ATCC 13833 (Kpn), Acinetobacter baumannii ATCC 17978 (Aba), and Pseudomonas aeruginosa ATCC 27853 (Pae) (Table 2). Both the minimum inhibitory concentration (MIC, Table 2) and the minimum bactericidal concentration (MBC, Table S1, Supporting Material) were determined.
# (§2) The minimum inhibitory concentration (MIC) and the minimum bactericidal concentration (MBC) of the compounds were determined in triplicate using Mueller–Hinton broth (MHB). […] Therefore, we decided to dissolve all peptides in DMSO to a final concentration of 25 mg/mL, for consistency. The bacteria inoculum was 5 × 10^5 CFU/mL, as recommended by CLSI (Document M07-A10, 2015). […] Reference-type strains, including representatives of both Gram-positive bacteria (Bacillus subtilis ATCC 6633, Enterococcus faecalis ATCC 29212, Staphylococcus aureus ATCC 25923, the methicillin-resistant Staphylococcus aureus ATCC 43300 (MRSA), Streptococcus pyogenes ATCC 12344) and Gram-negative bacteria (Escherichia coli CCUGT, Klebsiella pneumoniae ATCC 13833, Pseudomonas aeruginosa ATCC 27853, and Acinetobacter baumannii ATCC 17978), were acquired from ATCC or CCUG culture collections. Other antibiotic-resistant clinical isolates were present in our collection at the University Teaching Hospital (Azienda Ospedaliero-Universitaria Senese ‘Santa Maria alle Scotte’) in Siena, Tuscany, Italy. Specifically, MDR carbapenem-hydrolyzing class D β-lactamase-producing Acinetobacter baumannii and metallo-β-lactamase-producing Pseudomonas aeruginosa were used in this study (Table 4).
# [2] = system: Klebsiella pneumoniae ATCC 13833; details: MHB, 5 × 10^5 CFU/mL, 18 h, 35 °C, triplicate
# From the text: as §1, §2
# [3] = system: Acinetobacter baumannii ATCC 17978; details: for MBC Aba / MIC Aba: MHB, 5 × 10^5 CFU/mL, 18 h, 35 °C, triplicate; for MIC against A. baumannii, in molar units: corresponding to 2 and 8 μg/mL
# From the text: as §1, §2
# [4] = system: Pseudomonas aeruginosa ATCC 27853; details: MHB, 5 × 10^5 CFU/mL, 18 h, 35 °C, triplicate
# From the text: as §1, §2
# [5] = system: reference Gram-positive and Gram-negative strains
# From the text: as §1, §2
# Escherichia coli CCUGT = details: MHB, 5 × 10^5 CFU/mL, 18 h, 35 °C, triplicate
# From the text: as §1, §2
# [6] = system: Staphylococcus aureus ATCC 25923; details: MHB, 5 × 10^5 CFU/mL, 18 h, 35 °C, triplicate
# From the text: as §1, §2
# [7] = system: Bacillus subtilis ATCC 6633; details: MHB, 5 × 10^5 CFU/mL, 18 h, 35 °C, triplicate
# From the text: as §1, §2
# [8] = system: Enterococcus faecalis ATCC 29212; details: MHB, 5 × 10^5 CFU/mL, 18 h, 35 °C, triplicate
# From the text: as §1, §2
# [9] = system: A. baumannii SI-310 (OXA-24); details: colistin-resistant isolate; MHB, 5 × 10^5 CFU/mL, 18 h, 35 °C, triplicate
# Experimental: as §2
# [10] = system: P. aeruginosa 506/99 (VIM-2); details: MHB, 5 × 10^5 CFU/mL, 18 h, 35 °C, triplicate
# Experimental: as §2
# [11] = system: A. baumannii SI-648 (OXA-23, OXA-51-like); details: MHB, 5 × 10^5 CFU/mL, 18 h, 35 °C, triplicate
# Experimental: as §2
# [12] = system: S. aureus ATCC 43300 (MRSA); details: MHB, 5 × 10^5 CFU/mL, 18 h, 35 °C, triplicate
# Experimental: as §2
# [13] = system: P. aeruginosa 101/1477 (IMP-1); details: MHB, 5 × 10^5 CFU/mL, 18 h, 35 °C, triplicate
# Experimental: as §2
# [14] = system: A. baumannii SI-12 (OXA-23); details: MHB, 5 × 10^5 CFU/mL, 18 h, 35 °C, triplicate
# Experimental: as §2
# [15] = system: P. aeruginosa VR-143/97 (VIM-1); details: MHB, 5 × 10^5 CFU/mL, 18 h, 35 °C, triplicate
# Experimental: as §2
# [16] = system: P. aeruginosa VA-182/00 (VIM-2); details: MHB, 5 × 10^5 CFU/mL, 18 h, 35 °C, triplicate
# Experimental: as §2
Molecule,MBC Spy [1],MIC Spy [1],MIC Kpn [2],MBC Aba [3],MIC Aba [3],"MIC against A. baumannii, in molar units [3]",MIC Pae [4],MBC Eco (Escherichia coli CCUGT),MIC Eco (Escherichia coli CCUGT),MIC Sau [6],MBC Bsu [7],MIC Bsu [7],MBC Efa [8],MIC Efa [8],MBC A. baumannii SI-310 (OXA-24) [9],MIC A. baumannii SI-310 (OXA-24) [9],MBC P. aeruginosa 506/99 (VIM-2) [10],MIC P. aeruginosa 506/99 (VIM-2) [10],"MBC A. baumannii SI-648 (OXA-23, OXA-51-like) [11]","MIC A. baumannii SI-648 (OXA-23, OXA-51-like) [11]",also measured
1-Oct-Aib-Gly-Leu-Aib-Lys-Lys-Leu-Aib-Lys-Ile-Lol [Peptide 5],4 µg/mL,4 µg/mL,16 µg/mL,16 µg/mL,4 µg/mL,1.8 to 7.2 µM,8 µg/mL,> 16 µg/mL,8 µg/mL,16 µg/mL,16 µg/mL,8 µg/mL,8 µg/mL,4 µg/mL,4 µg/mL,2 µg/mL,8 µg/mL,8 µg/mL,4 µg/mL,4 μg/mL and 4/4 μg/mL,MBC Kpn [2]: 16 µg/mL; MBC Pae [4]: > 16 µg/mL; MIC against six of the eight bacterial strains tested ([5]; reference panel): 4 to 8 µg/mL; MIC against the other two strains ([5]; reference panel): 16 µg/mL; MBC Sau [6]: 16 µg/mL; MBC S. aureus ATCC 43300 (MRSA) [12]: 2 µg/mL; MIC S. aureus ATCC 43300 (MRSA) [12]: 2 µg/mL; MBC P. aeruginosa 101/1477 (IMP-1) [13]: 8 µg/mL; MIC P. aeruginosa 101/1477 (IMP-1) [13]: 8 µg/mL; MBC A. baumannii SI-12 (OXA-23) [14]: 4 µg/mL; MIC A. baumannii SI-12 (OXA-23) [14]: 4 μg/mL and 4/4 μg/mL; MBC P. aeruginosa VR-143/97 (VIM-1) [15]: 8 µg/mL; MIC P. aeruginosa VR-143/97 (VIM-1) [15]: 8 µg/mL; MBC P. aeruginosa VA-182/00 (VIM-2) [16]: 8 µg/mL; MIC P. aeruginosa VA-182/00 (VIM-2) [16]: 8 µg/mL
"CCCCCCCC(=O)NC(C)(C)C(=O)N[C@@H](CCCCN)C(=O)N[C@@H](CC(C)C)C(=O)NC(C)(C)C(=O)N[C@@H](CCCCN)C(=O)NCC(=O)N[C@@H](CC(C)C)C(=O)NC(C)(C)C(=O)NCC(=O)N[C@H](C(=O)N[C@H](CO)CC(C)C)[C@@H](C)CC [Peptide 1, 1-Oct-Aib-Lys-Leu-Aib-Lys-Gly-Leu-Aib-Gly-Ile-Lol] (Octanoyl-[Aib]KL[Aib]KGL[Aib]GI[Leu(ol)])",4 µg/mL,2 µg/mL,> 128 µg/mL,16 µg/mL,4 µg/mL,1.8 to 7.2 µM,16 µg/mL,32 µg/mL,32 µg/mL,16 µg/mL,16 µg/mL,4 µg/mL,2 µg/mL,2 µg/mL,4 µg/mL,4 μg/mL and 4/4 μg/mL,32 µg/mL,16 µg/mL,16 µg/mL,8 µg/mL,lowest MIC ([5]; lowest value over the eight reference strains): 2 µg/mL; MBC S. aureus ATCC 43300 (MRSA) [12]: 2 µg/mL; MIC S. aureus ATCC 43300 (MRSA) [12]: 2 µg/mL; MBC P. aeruginosa 101/1477 (IMP-1) [13]: 16 µg/mL; MIC P. aeruginosa 101/1477 (IMP-1) [13]: 8 µg/mL; MBC A. baumannii SI-12 (OXA-23) [14]: 8 µg/mL; MIC A. baumannii SI-12 (OXA-23) [14]: 4 µg/mL; MBC P. aeruginosa VR-143/97 (VIM-1) [15]: 32 µg/mL; MIC P. aeruginosa VR-143/97 (VIM-1) [15]: 32 µg/mL; MBC P. aeruginosa VA-182/00 (VIM-2) [16]: 16 µg/mL; MIC P. aeruginosa VA-182/00 (VIM-2) [16]: 16 µg/mL
